Source: patent publication US20080214572A1, “Selected Tetracyclic Tetrahydrofuran Derivatives Containing a Cyclic Amine Side Chain” (priority 2005, published 2008)
Read-outs that look alike come from different tables or passages of the source.

Columns and labels:
[1] = biological target: T1, human cloned 5-HT2A receptor, expressed in L929 cells (Homo sapiens, UniProt P28223); assay: In vitro radioligand binding affinity for 5-HT2A receptor ([125I]R91150)
T1 construct: expressed in transfected cells; host or cells: L929 cells
T1 sequence (P28223 whole entry): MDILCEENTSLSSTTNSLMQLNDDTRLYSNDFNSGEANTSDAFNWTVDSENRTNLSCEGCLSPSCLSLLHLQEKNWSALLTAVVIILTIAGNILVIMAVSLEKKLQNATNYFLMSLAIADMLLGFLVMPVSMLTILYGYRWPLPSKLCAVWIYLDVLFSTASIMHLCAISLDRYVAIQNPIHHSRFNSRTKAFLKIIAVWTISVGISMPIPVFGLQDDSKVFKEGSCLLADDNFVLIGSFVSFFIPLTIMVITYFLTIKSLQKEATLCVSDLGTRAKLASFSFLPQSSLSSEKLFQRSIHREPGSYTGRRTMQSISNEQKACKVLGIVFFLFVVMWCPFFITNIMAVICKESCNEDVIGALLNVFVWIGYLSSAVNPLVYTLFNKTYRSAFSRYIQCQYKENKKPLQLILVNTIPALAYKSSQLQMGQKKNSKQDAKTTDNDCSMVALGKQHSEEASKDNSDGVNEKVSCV
Description: (§1) The interaction of the compounds of Formula (I) with 5-HT2A and 5-HT2C receptors was assessed in in vitro radioligand binding experiments. In general, a low concentration of a radioligand with a high binding affinity for the receptor is incubated with a sample of a tissue preparation enriched in a particular receptor (1 to 5 mg tissue) in a buffered medium (0.2 to 5 ml). During the incubation, the radioligands bind to the receptor. When equilibrium of binding is reached, the receptor bound radioactivity is separated from the non-bound radioactivity, and the receptor bound activity is counted. The interaction of the test compounds with the receptors is assessed in competition binding experiments. Various concentrations of the test compound are added to the incubation mixture containing the tissue preparation and the radioligand. Binding of the radioligand will be inhibited by the test compound in proportion to its binding affinity and its concentration. The affinities of the compounds for the 5-HT2 receptors were measured by means of radioligand binding studies conducted with: (a) human cloned 5-HT2A receptor, expressed in L929 cells using [^125I]R91150 as radioligand and (b) human cloned 5-HT2C receptor, expressed in CHO cells using [^3H]mesulergine as radioligand.
(§2) The results are given in Table 3 below in terms of pIC50 values for the respective compounds.

[2] = biological target: T2, human Dopamine D2L receptor (Homo sapiens, UniProt P14416); assay: In vitro binding affinity for human D2L receptor ([3H]Spiperone)
T2 construct: expressed in transfected cells; host or cells: CHO cells (membranes)
T2 sequence (P14416 whole entry): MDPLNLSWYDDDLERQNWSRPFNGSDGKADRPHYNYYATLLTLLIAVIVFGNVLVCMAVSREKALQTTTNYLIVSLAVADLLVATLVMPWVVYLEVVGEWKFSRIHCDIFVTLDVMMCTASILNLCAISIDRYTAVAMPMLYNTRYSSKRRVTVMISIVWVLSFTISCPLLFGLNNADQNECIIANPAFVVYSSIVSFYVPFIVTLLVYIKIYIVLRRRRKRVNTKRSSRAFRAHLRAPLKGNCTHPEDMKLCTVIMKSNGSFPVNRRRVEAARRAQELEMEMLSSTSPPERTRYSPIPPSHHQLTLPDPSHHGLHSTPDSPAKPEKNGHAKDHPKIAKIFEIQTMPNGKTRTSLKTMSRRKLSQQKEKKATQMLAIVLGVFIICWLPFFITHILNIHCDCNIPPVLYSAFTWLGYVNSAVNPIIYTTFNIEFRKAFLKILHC
Description: Frozen membranes of human Dopamine D2L receptor-transfected CHO cells were thawed, briefly homogenized using an Ultra-Turrax T25 homogenizer and diluted in Tris-HCl assay buffer containing NaCl, CaCl2, MgCl2, KCl ([…] respectively, adjusted to pH 7.7 with HCl) to an appropriate protein concentration optimized for specific and non-specific binding. Radioligand [^3H]Spiperone (NEN, specific activity ˜70 Ci/mmol) was diluted in assay buffer at a concentration of 2 nmol/L. Prepared radioligand (50 μl), along with 50 μl of either the 10% DMSO control, Butaclamol (10^−6 mol/l final concentration), or compound of interest, was then incubated (30 min, 37° C.) with 400 μl of the prepared membrane solution. Membrane-bound activity was filtered through a Packard Filtermate harvester onto GF/B Unifilter plates and washed with ice-cold Tris-HCl buffer (50 mM; pH 7.7; 6×0.5 ml). Filters were allowed to dry before adding scintillation fluid and counting in a Topcount scintillation counter. Percentage specific bound and competition binding curves were calculated using S-Plus software (Insightful).
as §2
The values in the Table are pIC50 values and were determined in accordance with the procedure given above for determining D2 affinity.

[3] = biological target: T3, human cloned 5-HT2C receptor, expressed in CHO cells (Homo sapiens, UniProt P28335); assay: In vitro radioligand binding affinity for 5-HT2C receptor ([3H]mesulergine)
T3 construct: expressed in transfected cells; host or cells: CHO cells
T3 sequence (P28335 33-458): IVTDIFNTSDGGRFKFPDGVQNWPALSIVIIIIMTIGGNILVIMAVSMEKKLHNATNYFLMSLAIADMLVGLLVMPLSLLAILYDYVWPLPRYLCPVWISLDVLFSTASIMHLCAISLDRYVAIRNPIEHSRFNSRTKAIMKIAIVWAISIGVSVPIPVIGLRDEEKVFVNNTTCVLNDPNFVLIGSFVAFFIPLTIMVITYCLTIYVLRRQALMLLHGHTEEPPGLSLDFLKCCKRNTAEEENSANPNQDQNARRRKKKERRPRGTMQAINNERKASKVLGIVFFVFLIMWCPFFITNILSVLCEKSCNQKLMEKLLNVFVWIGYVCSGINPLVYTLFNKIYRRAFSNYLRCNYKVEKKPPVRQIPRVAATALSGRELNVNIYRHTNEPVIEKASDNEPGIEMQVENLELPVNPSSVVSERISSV
Description: as §1, §2

[4] = human cloned receptor in L929 cells, [125I]R91150, read-out: 5-HT2A pIC50 (converted)
[5] = human D2L-transfected CHO cell membranes, [3H]Spiperone, read-out: D2L pIC50 (converted)
[6] = human cloned receptor in CHO cells, [3H]mesulergine, read-out: 5-HT2C pIC50 (converted)
[7] = Table 4, comparative data with prior art analogue

SMILES | IC50 [1, 4] | IC50 [2, 5] | IC50 [3, 6] | h-D2L pIC50 [2, 7] | IC50 [1] | IC50 [2] | IC50 [3] | IC50 ([2]; Table 4, comparative data with prior art analogue, read-out: h-D2L pIC50 (converted))
CC1CCCN1C[C@H]1C[C@@H]2c3ccccc3Cc3ccc(F)cc3[C@H]2O1 (mixture of isomers) [Compound 16] | 8.51 nM | 40.7 nM | 4.37 nM |  |  |  |  | 
Fc1ccc2c(c1)C1OC(CN3CCCC3)CC1c1ccccc1C2 (stereo not drawn) [Compound 4] | 4.68 nM | 24 nM | 5.25 nM |  |  |  |  | 
CC(=O)OCCN1CCN(C[C@H]2C[C@@H]3c4ccccc4Cc4ccc(F)cc4[C@H]3O2)CC1 [Compound 5] | 14.5 nM | 7.41 nM | 19.1 nM |  |  |  |  | 
Fc1ccc2c(c1)[C@H]1O[C@@H](CN3CCCCCC3)C[C@@H]1c1ccccc1C2 [Compound 10] | 9.77 nM | 16.2 nM | 3.09 nM |  |  |  |  | 
CC1CCN(C[C@H]2C[C@@H]3c4ccccc4Cc4ccc(F)cc4[C@H]3O2)CC1 [Compound 12] | 3.89 nM | 1.35 nM | 1 nM |  |  |  |  | 
Fc1ccc2c(c1)C1OC(CN3CCCCC3)CC1c1ccccc1C2 (stereo not drawn) [Compound 17] | 1.91 nM | 5.89 nM | 1 nM |  |  |  |  | 
CCOC(=O)N1CCN(C[C@H]2C[C@@H]3c4ccccc4Cc4ccc(F)cc4[C@H]3O2)CC1 [Compound 20] | 4.27 nM | 33.1 nM | 9.55 nM |  |  |  |  | 
CC(C)C(=O)N1CCN(C[C@H]2C[C@@H]3c4ccccc4Cc4ccc(F)cc4[C@H]3O2)CC1 [Compound 22] | 3.8 nM | 34.7 nM | 39.8 nM |  |  |  |  | 
OC(CN1CCN(C[C@H]2C[C@@H]3c4ccccc4Cc4ccc(F)cc4[C@H]3O2)CC1)c1ccccc1 (stereo partly drawn) [Compound 27] | 9.55 nM | 4.07 nM | 20.4 nM |  |  |  |  | 
OC(Cc1ccccc1)CN1CCN(CC2CC3c4ccccc4Cc4ccc(F)cc4C3O2)CC1 (stereo not drawn) [Compound 28] | 4.79 nM | 4.57 nM | 10.7 nM | 8.34 |  |  |  | 
CCCCC(O)CN1CCN(CC2CC3c4ccccc4Cc4ccc(F)cc4C3O2)CC1 (stereo not drawn) [Compound 29] | 10 nM | 6.03 nM | 23.4 nM | 8.22 |  |  |  | 
COC(=O)N1CCN(C[C@H]2C[C@@H]3c4ccccc4Cc4ccc(F)cc4[C@H]3O2)CC1 [Compound 31] | 4.68 nM | 14.1 nM | 13.8 nM |  |  |  |  | 
CC(C)OC(=O)N1CCN(C[C@H]2C[C@@H]3c4ccccc4Cc4ccc(F)cc4[C@H]3O2)CC1 [Compound 32] | 5.13 nM | 22.9 nM | 32.4 nM |  |  |  |  | 
CCCCOC(=O)N1CCN(C[C@H]2C[C@@H]3c4ccccc4Cc4ccc(F)cc4[C@H]3O2)CC1 [Compound 33] | 11.7 nM | 17 nM | 38 nM |  |  |  |  | 
CCOCCN1CCN(C[C@H]2C[C@@H]3c4ccccc4Cc4ccc(F)cc4[C@H]3O2)CC1 [Compound 34] | 0.851 nM | 2.51 nM | 5.01 nM |  |  |  |  | 
COCCN1CCN(C[C@H]2C[C@@H]3c4ccccc4Cc4ccc(F)cc4[C@H]3O2)CC1 [Compound 35] | 1.51 nM | 3.09 nM | 7.41 nM |  |  |  |  | 
CC(C)(C)OCCN1CCN(C[C@H]2C[C@@H]3c4ccccc4Cc4ccc(F)cc4[C@H]3O2)CC1 [Compound 36] | 0.955 nM | 3.72 nM | 5.5 nM |  |  |  |  | 
OCCN1CCN(C[C@H]2C[C@@H]3c4ccccc4Sc4ccc(F)cc4[C@H]3O2)CC1 [Compound 39] | 0.692 nM | 2 nM | 6.92 nM |  |  |  |  | 
CC(C)CN1CCN(C[C@H]2C[C@@H]3c4ccccc4Cc4ccc(F)cc4[C@H]3O2)CC1 [Compound 40] | 26.9 nM | 12.3 nM | 52.5 nM |  |  |  |  | 
Fc1ccc2c(c1)[C@H]1O[C@@H](CN3CCN(CC(c4ccccc4)c4ccccc4)CC3)C[C@@H]1c1ccccc1C2 [Compound 41] | 97.7 nM | 95.5 nM | 295 nM |  |  |  |  | 
Fc1ccc2c(c1)[C@H]1O[C@@H](CN3CCN(Cc4ccc(Cl)cc4)CC3)C[C@@H]1c1ccccc1C2 [Compound 42] |  |  |  |  | 49 nM | 28.2 nM | 77.6 nM | 
Cc1ccccc1CN1CCN(C[C@H]2C[C@@H]3c4ccccc4Cc4ccc(F)cc4[C@H]3O2)CC1 [Compound 43] |  |  |  |  | 40.7 nM | 44.7 nM | 105 nM | 
Fc1ccc2c(c1)[C@H]1O[C@@H](CN3CCN(Cc4ccccc4)CC3)C[C@@H]1c1ccccc1C2 [Compound 45] |  |  |  |  | 18.6 nM | 7.94 nM | 45.7 nM | 
OC(CCN1CCN(C[C@H]2C[C@@H]3c4ccccc4Cc4ccc(F)cc4[C@H]3O2)CC1)c1ccc(F)cc1 (stereo partly drawn) [Compound 46] | 5.13 nM | 1.12 nM | 8.51 nM |  |  |  |  | 
Fc1ccc(CN2CCN(C[C@H]3C[C@@H]4c5ccccc5Cc5ccc(F)cc5[C@H]4O3)CC2)cc1 [Compound 47] |  |  |  |  | 30.9 nM | 9.12 nM | 129 nM | 
Fc1ccc2c(c1)[C@H]1O[C@@H](CN3CCN(Cc4ccc(C(F)(F)F)cc4)CC3)C[C@@H]1c1ccccc1C2 [Compound 48] |  |  |  |  | 234 nM | 85.1 nM | 302 nM | 
OCCN1CCN(CC2CC3c4ccccc4Cc4ccc(F)cc4C3O2)CC1 (stereo not drawn) [Prior art compound 21from WO 99/19317, reference compound] |  |  |  |  |  |  |  | 110 nM
